Test results: article PMC9446078 (Frontiers in Endocrinology, 2022)
Structures can show the parent of a compound that is named as a salt.

How the values were obtained:
[1] = target: T1, human recombinant aldose reductase (Homo sapiens, UniProt P15121); test: Aldose reductase inhibition assay (spectrophotometric, glyceraldehyde substrate); type: biochemical; conditions: recombinant enzyme, DL-glyceraldehyde substrate, pH 6.2, 37°C
T1 construct: made in house; host or cells: Escherichia coli
Description: Recombinant human aldose reductase was purified from bacterial cultures. Enzyme from expression cultures was extracted and purified essentially as described previously ([12]) with the exception that affinity chromatography over AffiGel Blue (Bio-Rad) was used as a final purification step.
AR activity was assayed according to the method described in the literature ([13]). The assay mixture in 1 ml contained 50 μM potassium phosphate buffer, pH 6.2, 0.4 mM lithium sulfate, 5 μM 2-mercapto ethanol, 10 μM DL-glyceraldehyde, 0.1 μM NADPH, and enzyme preparation (recombinant enzyme). Appropriate blanks were employed for corrections. The assay mixture was incubated at 37°C and initiated by the addition of NADPH at 37°C. The change in absorbance at 340 nm due to NADPH oxidation was followed in a Cary Bio 100 spectrophotometer.
The percent of inhibition with a test compound was calculated considering that the AR activity in the absence of an inhibitor was 100%. The concentration of the test sample giving 50% inhibition (IC50) was then estimated.

bovine serum albumin = test: Inhibition of advanced glycation end products (fluorometric, glucose + bovine serum albumin); type: biochemical; conditions: control mean 7.5
Description: Fluorescence was measured at the excitation wavelength of 360 nm and the emission wavelength of 440 nm. Afterwards, the samples were cooled to room temperature.

[2] = MTT cytotoxicity in HFF-1; type: cell-based, human; conditions: human, HFF-1 cells, HFF-1, 48 h, read-out: % Cytotoxicity w.r.t. untreated cells
Description: (§1) 1. HaCaT, HFF-1 and Ea.hy926 cells were counted and plated in 96 well plates at the density corresponding to 5 X 10^3 cells/well/180 μl of cell growth medium.
(§2) 2. The above cells were then incubated overnight under growth conditions of 37°C, 95 % Humidity, 5 % CO2.so as to allow the cell recovery and exponential growth.
(§3) 3. Following overnight incubation, the above cells were serum starved in DMEM (containing 25 mM glucose) supplemented with […] for 24 h.
(§4) 5. The Ea.hy926 cells were then incubated for 24 h and HaCaT and HFF-1 cells were incubated for 48 h in CO2 incubator at 37 °C, 5 % CO2 and 95 % humidity.
(§5) 6. Following incubation, the plates were taken out and 20 μl of 5 mg/ml of MTT 3-(4,5-dimethythiazol-2-yl)-2,5-diphenyl tetrazolium bromide solution was added to all the wells followed by additional incubation for 3 h at 37 °C. The supernatant was aspirated and 150 μl of DMSO was added to each well to dissolve formazan crystals. The absorbance of each well was then read at 540 nm using Synergy HT micro plate reader.
(§6) 7. The percentage cytotoxicity at each tested concentration was calculated using the following formula:
(§7) % Cytotoxicity = (1-X/R)*100

HFF-1 cells = test: MTT cytotoxicity in HFF-1; type: cell-based, human; conditions: HFF-1, all tested concentrations (0.01 to 1000 μM); <30% = non-cytotoxic
Description: as §1, §2, §3, §4, §5, §6, §7

What does the source list for `COC(=O)CCc1ccc(OCC(O)CNC(C)C)cc1` (stereo not shown) [Esmolol hydrochloride]?
IC50 [1]: 150 µM; Fluorescence measurement, mean (bovine serum albumin; 500 µM): 5; Fluorescence measurement, mean (bovine serum albumin; 1 mM): 2.6; Fluorescence measurement, mean (bovine serum albumin; 1 mM, listed as esmolol): 2.6 ± 1.7; cytotoxicity at 48 h, 0.01 µM ([2]; 0.01 μM): -21.6%; cytotoxicity at 48 h, 0.1 µM ([2]; 0.1 μM): -10.7%; cytotoxicity at 48 h, 1 µM ([2]; 1 μM): -8.29%; cytotoxicity at 48 h, 10 µM ([2]; 10 μM): -17.1%; cytotoxicity at 48 h, 50 µM ([2]; 50 μM): -21.8%; cytotoxicity at 48 h, 100 µM ([2]; 100 μM): -21.9%; cytotoxicity at 48 h, 500 µM ([2]; 500 μM): 14%; cytotoxicity at 48 h, 1000 µM ([2]; 1000 μM): 16.6%; cytotoxicity (HFF-1 cells): non-cytotoxic
